# Experiments:
# [1] = SAXS of neat and hydrated amphiphiles (phase, lattice parameter); format: physicochemical; settings: for lattice parameter, hydrated / phase, hydrated: excess water
# Procedure: SAXS analyses of the bulk and lyotropic phases of the amphiphiles were performed on a Bruker NanoSTAR laboratory SAXS instrument (Brucker AXS, Kalsruhe, Germany).
# (§1) The equilibrated lyotropic phases were placed into a demountable button sample cell. For the analysis of the dispersions, a multi-capillary holder was used. Button cells and capillary holder interchangeably fit into a block setup that was temperature-controlled with a Peltier heater-cooler system. 2D scattering images were radially averaged to conventional 1 D scattering plots and as a function of the q value (Å^−1) where q is the length of the scattering vector which was calculated using the formula q=(4π/λ) sin(θ/2), where λ is the wavelength and θ is the scattering angle.
# (§2) Small angle X-ray scattering patterns of emulsions and liposomes display large broad peaks while liquid crystalline phases of highly ordered nanostructured particles such as cubosomes and hexosomes display distinct sharp peaks. The relative positions of the peaks (“spacing”) allows for the elucidation of the symmetry of the structure. The interplanar distance (d) between two reflecting planes may be calculated using the formula d=(2π)/q, where q is the absolute position of the peak. This, in turn allows for the calculation of the lattice parameter (a), the size of the unit cell, to be calculated.
# [2] = Mesophase behaviour by polarized optical microscopy (POM); format: physicochemical; settings: for POM observation on exposure to water: 25° C. and 37° C.; for Appearance of the Lyotropic phase at excess water (25° C.-50° C.): POM, equilibration 1 h
# Procedure: Polarized Optical Microscopy (POM): Samples used for Polarized Optical Microscopy (POM) were prepared by placing a small amount of prodrug amphiphile on a microscope slide and covered with a cover slip. Water was placed on the edges of the cover slip and allowed to flow into the sample by capillary action. The microscope slide was placed in a Linkam PE94 hot stage (Linkam Scientific Instruments Ltd. Surrey, England) and heated at 3° C./min between room temperature and 50° C. […] Images were captured with a Nikon DS-Ri-1 camera. All images were taken at 100× magnification.
# The formation of lyotropic mesophases is based on the interaction of the prodrug amphiphile with water. Polarized optical microscopy was used to study the liquid crystalline or crystalline structures of the prodrug amphiphiles. This method was used as a preliminary and qualitative investigation to observe the morphological changes of the amphiphile as well as to predict the structural changes of the mesophases which may form upon hydration with water. For each prodrug amphiphile, a small amount of the neat and dry sample was placed on a microscope slide and covered with a cover slip. Water was placed on the edges of the cover slip to allow to flow into the sample by capillary action. Images were captured at 25° C. before and after the addition of water and at 37° C. after exposure to water. 37° C. was selected due to its physiological relevance. […]
# [3] = SAXS / synchrotron SAXS of dispersed nanoparticles; format: physicochemical; settings: dispersion with PEG stabiliser
# Procedure: as §1, §2
# The CP prodrug amphiphiles were hydrated with warm PBS containing 10-30% PEG4K-oleoyl or other steric stabilisers such F108 or F127 and sonicated in a sonicator bath and using a probe sonicator resulting in the lipid emulsion. The nanoparticles were then processed through a polycarbonate membrane (3×400 nm, 3×200 nm and 3×100 nm) using an extruder (Avestin, LipoFast LF-50) in order to ensure homogenous sizing. The CP prodrug-phospholipid/cholesterol nanoparticles were prepared by mixing the CP amphiphiles, DMPC and cholesterol in ethanol, followed by vigorous mixing and gentle evaporation under reduced pressure resulting in a thin film. The thin film was then hydrated with warm PBS containing 10-30% of PEG4K-oleoy solution, sonicated in a sonicator bath and using a probe sonicator resulting in the lipid emulsion. The nanoparticles were then processed through a polycarbonate membrane (3×400, 3×200 nm, 9×100 nm) using an extruder (Avestin, LipoFast LF-50) in order to ensure homogenous sizing between 20-200 nm.
# [4] = Reduction kinetics of Pt (IV) prodrug nanoparticles with ascorbic acid (LC-MS); format: in vitro ADME
# Procedure: The reducing agent was applied at concentrations corresponding to those found in the living cells' environment, e.g. 1 mM ascorbic acid or 2 mM glutathione (GSH).
# Dispersed nanoparticles of Pt (IV) prodrug amphiphiles were mixed with GSH, ascorbic acid or their combination. The ratios of the reducing agents to platinum prodrugs were 10:1 or 50:1 for ascorbic acid and 20:1 for GSH. The reduction kinetics was analysed by LC-MS via monitoring the peaks related to each prodrug amphiphile. The prodrugs were detected by negative ions optimised for each platinum amphiphile. The reduction kinetics was plotted as the percentage of the area under the peak of Pt (IV)-prodrug compared to the peak before the addition of the reducing agent against the time of incubation. At each time point 10 μl of a sample withdrawn from the reaction solution was injected directly into a Phenomenex C8 150 mm×2 mm 5 μm Luna column (Phenomenex, Australia). A 100% Methanol solution was used as the mobile phase with a flow rate of 0.5 ml/min for 8 minutes. The sample after the column separation was eluted to the ESI source. […] The samples were well maintained at a temperature of 37° C. during the entire measurement by incubation in the temperature-controlled auto-sampler. Data was acquired and processed with Xcalibur Quan chromatography software.
molecule,measurement,setting,value
"CCCCCCCC/C=C\CCCCCCCC(=O)[O][Pt]([NH2])([NH2])([Cl])([Cl])[O]C(=O)CCCCCCC/C=C\CCCCCCCC [CP-bis (oleoyl), cis,cis,trans-[PtCl2(NH3)2(oleoyl)2]]","lattice parameter, hydrated",[1]; temperature not given,34.2 ± 0.5 Å
same,"phase, hydrated",[1]; temperature not given,LC1
same,"lattice parameter, neat non-hydrated",[1]; temperature not given,34.2 ± 0.5 Å
same,"phase, neat non-hydrated",[1]; temperature not given,LC1
same,POM observation on exposure to water,[2],amenable to swelling to some extent
same,Appearance of the Lyotropic phase at excess water (25° C.-50° C.),[2],No distinct mesophases
"CCCCCCCC/C=C\CCCCCCCC(=O)OCCOCCOCCOC(=O)[O][Pt]([NH2])([NH2])([Cl])([Cl])[O]C(=O)OCCOCCOCCOC(=O)CCCCCCC/C=C\CCCCCCCC [CP-bis (PEG3-oleoyl), cis,cis,trans-(PtCl2(-triethyleneglycolyl-oleoyl)2)]",lattice parameter of dispersed nanoparticles,[3],44.28±0.5 Å
same,structure of dispersed nanoparticles,[3],lamellar dispersed nanoparticle
same,"lattice parameter, hydrated",[1]; 25° C.,43.93 ± 0.5 Å
same,"lattice parameter, neat non-hydrated",[1]; temperature not given,40.80 ± 0.5 Å
same,POM observation on exposure to water,[2],formation of a lamellar liquid crystalline structures
"CCCCC/C=C\C/C=C\CCCCCCCC(=O)[O][Pt]([Cl])([Cl])[O]C(=O)CCCCCCC/C=C\C/C=C\CCCCC.N.N [CP-bis (linoleoyl), cis,cis,trans-[PtCl2(NH3)2(linoleoyl)2]]","lattice parameter, hydrated",[1]; temperature not given,33.5 ± 0.5 Å
same,"phase, hydrated",[1]; temperature not given,LC1
same,"lattice parameter, neat non-hydrated",[1]; temperature not given,33.5 ± 0.5 Å
same,"phase, neat non-hydrated",[1]; temperature not given,LC1
same,POM observation on exposure to water,[2],amenable to swelling to some extent
same,Appearance of the Lyotropic phase at excess water (25° C.-50° C.),[2],No distinct mesophases
"CCCCCCCCCCCCCCCC(=O)[O][Pt]([Cl])([Cl])[O]C(=O)CCCCCCCCCCCCCCC.N.N [CP-bis (palmitoyl), cis,cis,trans-[PtCl2(NH3)2(palmitoyl)2]]",POM observation on exposure to water,[2],amenable to swelling to some extent
"CCCCCCCC/C=C\CCCCCCCC(=O)OCCOCCOCCNC(=O)CCC(=O)[O][Pt]([NH2])([NH2])([Cl])([Cl])[O]C(=O)CCC(=O)NCCOCCOCCOC(=O)CCCCCCC/C=C\CCCCCCCC [CP-bis(suc-amino-PEG3-oleoyl), cis,cis,trans-(PtCl2(NH3)2-(succinoyl-triethylene glycolyl-oleoyl)2)]",lattice parameter of dispersed nanoparticles,[3],47.62±0.5 Å
same,structure of dispersed nanoparticles,[3],multilamellar dispersed nanoparticle
same,"lattice parameter, hydrated",[1]; 25° C.,46.54 ± 0.5 Å
same,"lattice parameter, hydrated",[1]; 37° C.,46.33 ± 0.5 Å
same,"lattice parameter, neat non-hydrated",[1]; temperature not given,46.20 ± 0.5 Å
"CCCCCCCCCCCC(=O)[O][Pt]([Cl])([Cl])[O]C(=O)CCCCCCCCCCC.N.N [CP-bis (lauroyl), cis,cis,trans-[PtCl2(NH3)2(lauroyl)2]]",POM observation on exposure to water,[2],no observable difference after hydration with water at either 25 or 37 °C
"CCCCCCCCCCCCCC(=O)OCCOCCOCCNC(=O)CCC(=O)[O][Pt]1([O]C(=O)CCC(=O)NCCOCCOCCOC(=O)CCCCCCCCCCCCC)[O]C(=O)C2(CCC2)C(=O)[O]1.N.N [Carboplatin-bis (suc-PEG3-myristoyl), cis, [Pt (Diamine) (1,1-cyclobutanedicarboxylato) (succinylamide-triethyleneglycol-myristoyl)2]]",Appearance of the Lyotropic phase at excess water (25° C.-50° C.),[2],Lamellar
"CCCCCCCCCCCCCC(=O)[O][Pt]([Cl])([Cl])[O]C(=O)CCCCCCCCCCCCC.N.N [CP-bis (myristoyl), cis,cis,trans-[PtCl2(NH3)2(myristoyl)2]]",POM observation on exposure to water,[2],amenable to swelling to some extent
"CCCCCCCCCCCCCC(=O)[O][Pt]1([NH2])([NH2])([O]C(=O)CCCCCCCCCCCCC)[O]C(=O)C2(CCC2)C(=O)[O]1 [Carboplatin-bis (myristoyl), cis, trans [(Diamine) (1,1-cyclobutanedicarboxylato) (bis myristoyl)]]",maximum reduction,"[4]; ascorbic acid as reducing agent, up to 24 h",80%
same,Appearance of the Lyotropic phase at excess water (25° C.-50° C.),[2],No distinct mesophase
"CC(C)CCCC(C)CCCC(C)CCCC(C)CC(=O)[O][Pt]([NH2])([NH2])([Cl])([Cl])[O]C(=O)CC(C)CCCC(C)CCCC(C)CCCC(C)C (mixture of isomers) [CP-bis (phytanoyl), cis,cis,trans-[PtCl2(NH3)2(phytanoyl)2]]","lattice parameter, neat non-hydrated",[1]; 25° C.,37.3 ± 0.5 Å
same,"phase, neat non-hydrated",[1]; 25° C.,LC1
same,"lattice parameter, neat non-hydrated",[1]; 37° C.,37.3 ± 0.5 Å
same,"phase, neat non-hydrated",[1]; 37° C.,LC1
same,"lattice parameter, hydrated",[1]; 25° C.,37.3 ± 0.5 Å
same,"phase, hydrated",[1]; 25° C.,LC1
same,"lattice parameter, hydrated",[1]; 37° C.,39.8 ± 0.5 Å
same,"phase, hydrated",[1]; 37° C.,LC1
same,POM observation on exposure to water,[2],amenable to swelling to some extent
same,Appearance of the Lyotropic phase at excess water (25° C.-50° C.),[2],No distinct mesophases
"cis, trans [Oxaliplatin-bis (myristoyl), cis, trans [Pt ((1R, 2R)-1,2 cyclohexanediamine-N,N′) (oxalate(2-)O,O′) (myristoyl)2]]",reduction rate compared with carboplatin prodrug,"[4]; 1 mM ascorbic acid, 0.1 mM prodrug in DMPC/cholesterol nanoparticles",higher rate up to 3 h compared with carboplatin prodrug
